Where two headings read alike, the source gives them in different places.
Experiments:
[1] = tested on: Aβ40 in conditioned medium of cells stably expressing Amyloid Precursor Protein (APP); test: In vitro BACE cell-based assay (Aβ40 in conditioned medium, sandwich ELISA)
In short: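 Conditioned medium from stably APP-expressing cells treated with compound dose series is assayed for Aβ40 by sandwich ELISA with time-resolved fluorescence detection. IC50 is calculated from percent inhibition of Aβ40 against compound concentration.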

[2] = molecular target: Beta Secretase enzyme (BACE) (Homo sapiens, UniProt P56817); test: In vitro enzymatic BACE FRET (fluorescence resonance energy transfer) assay; format: biochemical
Chain of Beta Secretase enzyme (BACE) (P56817 46-501, species assumed): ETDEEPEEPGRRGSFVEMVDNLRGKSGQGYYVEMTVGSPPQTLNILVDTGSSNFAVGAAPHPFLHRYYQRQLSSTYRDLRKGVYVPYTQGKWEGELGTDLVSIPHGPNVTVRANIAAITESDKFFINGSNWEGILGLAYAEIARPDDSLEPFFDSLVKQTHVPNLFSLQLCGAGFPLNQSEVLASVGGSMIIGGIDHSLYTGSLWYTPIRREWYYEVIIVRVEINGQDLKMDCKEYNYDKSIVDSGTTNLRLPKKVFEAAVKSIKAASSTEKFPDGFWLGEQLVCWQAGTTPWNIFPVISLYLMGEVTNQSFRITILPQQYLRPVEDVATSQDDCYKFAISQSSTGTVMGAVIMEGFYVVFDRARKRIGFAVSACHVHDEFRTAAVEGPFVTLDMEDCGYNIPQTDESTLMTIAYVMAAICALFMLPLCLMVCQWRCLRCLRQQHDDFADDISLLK
In short: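 Acetate buffer (0.05 M, pH 4.2), 10% DMSO final, 100 uM nonionic detergent genapol. Substrate addition (50 nM FRET peptide) initiates; one-hour incubation; Tris raises pH to neutrality before fluorescence measurement.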

[3] = Homo sapiens, HEK293, average IC50, HEK cells, read-out: HEK cell assay
[4] = average IC50, enzyme assay, read-out: BACE 1 FRET assay

SMILES	IC50 [1, 3] [µM]	IC50 [2, 4] [µM]	IC50 ([1]; Homo sapiens, HEK293, read-out: HEK cell assay (uM), average IC50, HEK cells) [µM]	IC50 ([2]; BACE 1 FRET assay (uM)) [µM]	IC50 ([1]; average IC50, HEK cells, read-out: HEK cell assay) [µM]
NC1=N[C@@]2(CO1)c1cc(-c3ccncc3F)ccc1Oc1cnc(-c3cccnc3F)cc12 [Example 574, (5S)-3-(2-fluoro-3-pyridinyl)-7-(3-fluoro-4-pyridinyl)spiro[chromeno[2,3-c]pyridine-5,4′-[1,3]oxazol]-2′-amine]	2.23	0.856			
NC1=N[C@@]2(CO1)c1cc(-c3ccncc3F)ccc1Oc1cnc(-c3cncc(F)c3)cc12 [Example 575, (5S)-7-(3-fluoro-4-pyridinyl)-3-(5-fluoro-3-pyridinyl)spiro[chromeno[2,3-c]pyridine-5,4′-[1,3]oxazol]-2′-amine]	0.971	0.083			
NC1=N[C@]2(CS1)c1cc(-c3cccnc3F)ccc1Oc1ncc(C3=CCOCC3)cc12 [Example 577, (5R)-3-(3,6-dihydro-2H-pyran-4-yl)-7-(2-fluoro-3-pyridinyl)spiro[chromeno[2,3-b]pyridine-5,4′-[1,3]thiazol]-2′-amine]	0.0164	0.0017			
NC1=N[C@]2(CS1)c1cc(I)ccc1Oc1ncc(Br)cc12 [Example 579, (5R)-3-bromo-7-iodospiro[chromeno[2,3-b]pyridine-5,4′-[1,3]thiazol]-2′-amine]	3.18	1.93			
Cc1ccc(-c2cnc3c(c2)[C@]2(CSC(N)=N2)c2cc(-c4cccnc4F)ccc2O3)cn1 [Example 582, (5S)-7-(2-fluoro-3-pyridinyl)-3-(6-methyl-3-pyridinyl)spiro[chromeno[2,3-b]pyridine-5,4′-[1,3]thiazol]-2′-amine]	0.005	0.002			
Cn1cc(-c2cnc3c(c2)[C@]2(CSC(N)=N2)c2cc(-c4cccnc4F)ccc2O3)cn1 [Example 584, (5S)-7-(2-fluoro-3-pyridinyl)-3-(1-methyl-1H-pyrazol-4-yl)spiro[chromeno[2,3-b]pyridine-5,4′-[1,3]thiazol]-2′-amine]	0.0159	0.002			
NC1=N[C@]2(CS1)c1cc(-c3cccnc3)ccc1Oc1ncc(C3=CCOCC3)cc12 [Example 585, (5R)-3-(3,6-dihydro-2H-pyran-4-yl)-7-(3-pyridinyl)spiro[chromeno[2,3-b]pyridine-5,4′-[1,3]thiazol]-2′-amine]	0.0181	0.0025			
NC1=N[C@@]2(CS1)c1cc(-c3cccnc3F)ccc1Oc1cnc(C3=CCOCC3)cc12 [Example 590, (5S)-3-(3,6-dihydro-2H-pyran-4-yl)-7-(2-fluoro-3-pyridinyl)spiro[chromeno[2,3-c]pyridine-5,4′-[1,3]thiazol]-2′-amine]			0.0093	0.0007	
NC1=N[C@@]2(CS1)c1cc(-c3cccc(Cl)c3)ccc1Oc1cnc(C3=CCOCC3)cc12 [Example 591, (5S)-7-(3-chlorophenyl)-3-(3,6-dihydro-2H-pyran-4-yl)spiro[chromeno[2,3-c]pyridine-5,4′-[1,3]thiazol]-2′-amine]	0.0733	0.0007			
NC1=N[C@@]2(CS1)c1cc(-c3cncc(F)c3)ccc1Oc1cnc(C3=CCOCC3)cc12 [Example 592, (5S)-3-(3,6-dihydro-2H-pyran-4-yl)-7-(5-fluoro-3-pyridinyl)spiro[chromeno[2,3-c]pyridine-5,4′-[1,3]thiazol]-2′-amine]		0.0009			0.0213
CC1(C#Cc2cc(F)c3c(c2)[C@]2(COC(N)=N2)c2cc(-c4ccc(F)nc4)ccc2O3)COC1 [Example 598]	0.032	0.0041			
CC1(C#Cc2cc(F)c3c(c2)[C@]2(COC(N)=N2)c2cc(-c4cncc(F)c4)ccc2O3)COC1 [Example 599, (4S)-4′-fluoro-7′-(5-fluoro-3-pyridinyl)-2′-((3-methyl-3-oxetanyl)ethynyl)spiro[1,3-oxazole-4,9′-xanthen]-2-amine]	0.011	0.0011			
NC1=N[C@@]2(CO1)c1cc(-c3cc(F)cnc3F)ccc1Oc1cnc(C3=CCOCC3)cc12 [Example 600, (5S)-7-(2,5-difluoro-3-pyridinyl)-3-(3,6-dihydro-2H-pyran-4-yl)spiro[chromeno[2,3-c]pyridine-5,4′-[1,3]oxazol]-2′-amine]	0.165	0.0177			
NC1=N[C@]2(CS1)c1cc(-c3cccnc3)ccc1Oc1ncc(N3CCOCC3)cc12 [Example 601, (5R)-3-(4-morpholinyl)-7-(3-pyridinyl)spiro[chromeno[2,3-b]pyridine-5,4′-[1,3]thiazol]-2′-amine]	0.724	2.29			
NC1=N[C@@]2(CS1)c1cc(-c3cccnc3)ccc1Oc1ncc(N3CCOCC3)cc12 [Example 602, (5S)-3-(4-morpholinyl)-7-(3-pyridinyl)spiro[chromeno[2,3-b]pyridine-5,4′-[1,3]thiazol]-2′-amine]	0.017	0.0028			
NC1=N[C@@]2(CS1)c1cc(-c3cccnc3F)ccc1Oc1ncc(Br)cc12 [Example 603, (5S)-3-bromo-7-(2-fluoro-3-pyridinyl)spiro[chromeno[2,3-b]pyridine-5,4′-[1,3]thiazol]-2′-amine]	0.188	0.0087			
CC1(COc2cc(F)c3c(c2)[C@]2(COC(N)=N2)c2cc(-c4cnccc4F)ccc2O3)COC1 [Example 604, (4S)-4′-fluoro-7′-(4-fluoro-3-pyridinyl)-2′-((3-methyl-3-oxetanyl)methoxy)spiro[1,3-oxazole-4,9′-xanthen]-2-amine]	0.005	0.0006			
CC(C)(C#N)COc1cc(F)c2c(c1)[C@]1(COC(N)=N1)c1cc(-c3cnccc3F)ccc1O2 [Example 605, 3-(((4S)-2-amino-4′-fluoro-7′-(4-fluoro-3-pyridinyl)spiro[1,3-oxazole-4,9′-xanthen]-2′-yl)oxy)-2,2-dimethylpropanenitrile]	0.01	0.0008			
COc1cc(F)c2c(c1)[C@]1(CSC(N)=N1)c1cc(Br)ccc1O2 [Example 606, (4S)-7′-bromo-4′-fluoro-2′-methoxyspiro[1,3-thiazole-4,9′-xanthen]-2-amine]	0.279	0.813			
COc1nccc(-c2cc(F)c3c(c2)[C@]2(COC(N)=N2)c2cc(-c4cccnc4F)ccc2O3)n1 [Example 607, (4S)-4′-fluoro-7′-(2-fluoro-3-pyridinyl)-2′-(2-methoxy-4-pyrimidinyl)spiro[1,3-oxazole-4,9′-xanthen]-2-amine]	0.07	0.0051			
COc1cc(F)c2c(c1)[C@]1(CSC(N)=N1)c1cc(-c3cccnc3F)ccc1O2 [Example 608, (4S)-4′-fluoro-7′-(2-fluoro-3-pyridinyl)-2′-methoxyspiro[1,3-thiazole-4,9′-xanthen]-2-amine]	0.162	0.0036			
CC(C)(C)COc1cc2c(cn1)Oc1ccc(-c3cccnc3F)cc1[C@@]21COC(N)=N1 [Example 609, (5S)-3-(2,2-dimethylpropoxy)-7-(2-fluoro-3-pyridinyl)spiro[chromeno[2,3-c]pyridine-5,4′-[1,3]oxazol]-2′-amine]	0.015	0.0004			
CC(C)(C)COc1cc2c(cn1)Oc1ccc(-c3cccnc3F)cc1[C@]21COC(N)=N1 [Example 610, (5R)-3-(2,2-dimethylpropoxy)-7-(2-fluoro-3-pyridinyl)spiro[chromeno[2,3-c]pyridine-5,4′-[1,3]oxazol]-2′-amine]	1.13	0.116			
